Test results reported in ChEMBL document CHEMBL3259542, “Design, synthesis and pharmacological evaluation of novel polycyclic heteroarene ethers as PDE10A inhibitors: Part I” (Bioorg Med Chem Lett, 2014).
Each block holds one compound with its values, some of them ahead of it.

Experiments:
Liver microsome [1] = assay: Drug level in rat liver microsomes treated with 9-Methyl-3-(2-{[3-(pyrimidin-5-yl)pyridin-2-yl]oxy}ethyl)-9H-pyrido[2,3-b]indole at 1 uM after 60 mins by LC-MS/MS analysis; assay type: ADME; details: 1 h
[2] = Retention time of the compound by HPLC analysis; assay type: physicochemical
[3] = target: T1, cAMP and cAMP-inhibited cGMP 3',5'-cyclic phosphodiesterase 10A (Homo sapiens, UniProt Q9Y233); assay: Inhibition of N-terminal GST-tagged human recombinant PDE10A assessed as substrate hydrolysis using [3H]cAMP as substrate at 1 uM after 30 mins by two-step radiometric assay
T1 sequence (Q9Y233 whole entry): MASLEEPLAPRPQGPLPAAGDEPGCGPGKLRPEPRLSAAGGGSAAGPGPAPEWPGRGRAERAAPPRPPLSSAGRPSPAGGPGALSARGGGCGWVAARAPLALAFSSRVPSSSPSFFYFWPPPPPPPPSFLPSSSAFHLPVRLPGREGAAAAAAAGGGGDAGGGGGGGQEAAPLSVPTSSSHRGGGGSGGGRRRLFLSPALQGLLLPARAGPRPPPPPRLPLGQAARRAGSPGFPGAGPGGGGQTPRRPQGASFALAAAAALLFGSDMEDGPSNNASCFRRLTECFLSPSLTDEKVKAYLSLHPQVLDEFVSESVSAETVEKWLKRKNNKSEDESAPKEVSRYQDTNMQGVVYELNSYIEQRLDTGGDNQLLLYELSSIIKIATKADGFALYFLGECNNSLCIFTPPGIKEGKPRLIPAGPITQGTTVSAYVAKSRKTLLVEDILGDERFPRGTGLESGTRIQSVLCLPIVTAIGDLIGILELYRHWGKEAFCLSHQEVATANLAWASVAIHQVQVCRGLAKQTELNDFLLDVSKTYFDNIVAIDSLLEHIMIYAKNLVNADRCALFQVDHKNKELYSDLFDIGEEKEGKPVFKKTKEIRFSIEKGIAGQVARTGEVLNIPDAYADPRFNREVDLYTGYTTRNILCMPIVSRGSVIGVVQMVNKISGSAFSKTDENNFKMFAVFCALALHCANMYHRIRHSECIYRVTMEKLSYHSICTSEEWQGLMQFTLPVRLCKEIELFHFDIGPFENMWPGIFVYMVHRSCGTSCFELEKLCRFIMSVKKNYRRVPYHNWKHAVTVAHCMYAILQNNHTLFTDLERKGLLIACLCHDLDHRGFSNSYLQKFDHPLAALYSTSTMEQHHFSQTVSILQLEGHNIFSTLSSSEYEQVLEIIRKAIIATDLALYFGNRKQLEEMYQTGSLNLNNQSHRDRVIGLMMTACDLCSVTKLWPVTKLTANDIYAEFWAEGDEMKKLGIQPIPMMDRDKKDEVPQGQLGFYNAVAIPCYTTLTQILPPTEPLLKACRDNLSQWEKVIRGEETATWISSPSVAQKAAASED

[4] = target: cGMP-dependent 3',5'-cyclic phosphodiesterase (Homo sapiens) (UniProt O00408); assay: Inhibition of N-terminal GST-tagged human recombinant PDE2A assessed as substrate hydrolysis using cAMP as substrate at 10 uM after 30 mins by homogenous time-resolved fluorescence method
Homo sapiens = species: Homo sapiens; assay: Selectivity for human recombinant PDE10A over human recombinant PDE2A
[5] = target: T1, cAMP and cAMP-inhibited cGMP 3',5'-cyclic phosphodiesterase 10A; assay: Inhibition of N-terminal GST-tagged human recombinant PDE10A assessed as substrate hydrolysis using [3H]cAMP as substrate after 30 mins by two-step radiometric assay
[6] = Metabolic stability in rat liver microsomes assessed as compound remaining at 1 uM after 60 mins; assay type: ADME; details: read-out: Stability
[7] = Metabolic stability in human liver microsomes assessed as compound remaining at 1 uM after 60 mins; assay type: ADME; details: read-out: Stability
[8] = target: Dual specificity calcium/calmodulin-dependent 3',5'-cyclic nucleotide phosphodiesterase 1A (Homo sapiens) (UniProt P54750); assay: Inhibition of N-terminal GST-tagged human recombinant PDE1A assessed as substrate hydrolysis using [3H]cAMP as substrate at 1 uM after 30 mins by two-step radiometric assay
Sequence of Dual specificity calcium/calmodulin-dependent 3',5'-cyclic nucleotide phosphodiesterase 1A (Homo sapiens) (P54750 whole entry): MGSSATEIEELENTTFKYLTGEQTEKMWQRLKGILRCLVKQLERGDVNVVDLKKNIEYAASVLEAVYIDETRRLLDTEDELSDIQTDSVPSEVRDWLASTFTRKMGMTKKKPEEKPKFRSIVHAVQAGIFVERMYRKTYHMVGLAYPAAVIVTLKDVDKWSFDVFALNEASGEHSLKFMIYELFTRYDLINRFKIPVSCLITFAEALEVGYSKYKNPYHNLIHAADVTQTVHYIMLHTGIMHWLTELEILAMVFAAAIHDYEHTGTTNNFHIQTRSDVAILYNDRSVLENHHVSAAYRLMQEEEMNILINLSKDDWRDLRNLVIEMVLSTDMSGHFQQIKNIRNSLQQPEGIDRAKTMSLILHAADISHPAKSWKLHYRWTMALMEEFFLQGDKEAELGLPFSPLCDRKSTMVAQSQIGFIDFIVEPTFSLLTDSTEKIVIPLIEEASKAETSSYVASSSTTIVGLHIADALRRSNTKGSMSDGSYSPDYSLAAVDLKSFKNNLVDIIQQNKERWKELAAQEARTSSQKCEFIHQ

[9] = target: cGMP-dependent 3',5'-cyclic phosphodiesterase (Homo sapiens) (UniProt O00408); assay: Inhibition of N-terminal GST-tagged human recombinant PDE2A assessed as substrate hydrolysis using cAMP as substrate at 1 uM after 30 mins by homogenous time-resolved fluorescence method
[10] = target: cGMP-inhibited 3',5'-cyclic phosphodiesterase 3A (Homo sapiens) (UniProt Q14432); assay: Inhibition of N-terminal GST-tagged human recombinant PDE3A assessed as substrate hydrolysis using cAMP as substrate at 1 uM after 30 mins by homogenous time-resolved fluorescence method
Sequence of cGMP-inhibited 3',5'-cyclic phosphodiesterase 3A (Homo sapiens) (Q14432 whole entry): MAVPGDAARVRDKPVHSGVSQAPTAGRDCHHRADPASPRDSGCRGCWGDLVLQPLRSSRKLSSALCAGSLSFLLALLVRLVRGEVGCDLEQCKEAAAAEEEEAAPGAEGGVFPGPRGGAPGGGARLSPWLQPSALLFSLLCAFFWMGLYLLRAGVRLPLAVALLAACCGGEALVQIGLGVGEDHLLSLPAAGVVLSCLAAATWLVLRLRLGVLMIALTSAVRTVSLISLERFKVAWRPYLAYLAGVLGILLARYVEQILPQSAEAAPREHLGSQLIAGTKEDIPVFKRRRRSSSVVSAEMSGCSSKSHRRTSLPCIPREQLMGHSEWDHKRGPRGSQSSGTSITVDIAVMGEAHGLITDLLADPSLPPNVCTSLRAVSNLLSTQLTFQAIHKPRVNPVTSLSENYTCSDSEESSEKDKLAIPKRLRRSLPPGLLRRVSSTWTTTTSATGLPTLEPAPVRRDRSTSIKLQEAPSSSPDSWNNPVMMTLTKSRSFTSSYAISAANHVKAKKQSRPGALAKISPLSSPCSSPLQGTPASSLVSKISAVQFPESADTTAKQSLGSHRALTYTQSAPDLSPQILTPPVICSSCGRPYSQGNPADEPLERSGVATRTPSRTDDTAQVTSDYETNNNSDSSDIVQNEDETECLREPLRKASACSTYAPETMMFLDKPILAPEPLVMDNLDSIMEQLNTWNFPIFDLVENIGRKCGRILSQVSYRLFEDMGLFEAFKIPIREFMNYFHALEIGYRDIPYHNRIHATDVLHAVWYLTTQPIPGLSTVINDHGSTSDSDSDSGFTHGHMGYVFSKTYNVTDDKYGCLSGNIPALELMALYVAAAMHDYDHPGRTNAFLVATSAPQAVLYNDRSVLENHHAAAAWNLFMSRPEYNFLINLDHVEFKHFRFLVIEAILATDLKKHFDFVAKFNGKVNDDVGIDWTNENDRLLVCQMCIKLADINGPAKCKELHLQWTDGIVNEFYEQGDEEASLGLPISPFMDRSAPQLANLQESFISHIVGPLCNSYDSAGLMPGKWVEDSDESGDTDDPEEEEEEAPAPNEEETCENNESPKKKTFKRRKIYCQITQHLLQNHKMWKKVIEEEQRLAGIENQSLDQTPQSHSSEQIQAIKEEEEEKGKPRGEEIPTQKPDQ

[11] = target: 3',5'-cyclic-AMP phosphodiesterase 4D (Homo sapiens) (UniProt Q08499); assay: Inhibition of N-terminal GST-tagged human recombinant PDE4D assessed as substrate hydrolysis using [3H]cAMP as substrate at 1 uM after 30 mins by two-step radiometric assay
Sequence of 3',5'-cyclic-AMP phosphodiesterase 4D (Homo sapiens) (Q08499 whole entry): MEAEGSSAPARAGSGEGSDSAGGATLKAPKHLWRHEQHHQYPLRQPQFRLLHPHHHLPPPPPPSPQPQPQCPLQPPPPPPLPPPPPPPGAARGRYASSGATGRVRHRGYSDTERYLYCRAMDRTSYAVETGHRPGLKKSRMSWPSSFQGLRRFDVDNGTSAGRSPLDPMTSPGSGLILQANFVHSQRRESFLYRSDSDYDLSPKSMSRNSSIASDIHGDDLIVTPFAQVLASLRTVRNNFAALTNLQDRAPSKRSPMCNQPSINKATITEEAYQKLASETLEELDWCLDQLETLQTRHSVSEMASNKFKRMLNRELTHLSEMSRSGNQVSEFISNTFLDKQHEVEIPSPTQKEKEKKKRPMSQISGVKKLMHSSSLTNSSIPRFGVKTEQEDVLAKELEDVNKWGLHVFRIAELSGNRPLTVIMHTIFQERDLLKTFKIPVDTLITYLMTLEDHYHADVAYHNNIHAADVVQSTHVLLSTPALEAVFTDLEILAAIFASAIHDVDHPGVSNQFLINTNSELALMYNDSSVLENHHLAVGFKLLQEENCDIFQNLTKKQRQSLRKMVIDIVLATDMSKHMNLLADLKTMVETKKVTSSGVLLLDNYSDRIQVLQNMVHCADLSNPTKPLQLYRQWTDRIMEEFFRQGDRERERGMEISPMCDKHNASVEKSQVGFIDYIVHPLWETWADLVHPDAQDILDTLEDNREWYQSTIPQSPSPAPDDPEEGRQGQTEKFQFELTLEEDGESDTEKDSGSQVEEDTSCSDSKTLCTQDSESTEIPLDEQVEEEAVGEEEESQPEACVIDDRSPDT

[12] = target: cGMP-specific 3',5'-cyclic phosphodiesterase (Homo sapiens) (UniProt O76074); assay: Inhibition of N-terminal GST-tagged human recombinant PDE5A assessed as substrate hydrolysis using [3H]cGMP as substrate at 1 uM after 30 mins by two-step radiometric assay
[13] = target: High affinity 3',5'-cyclic-AMP phosphodiesterase 7A (Homo sapiens) (UniProt Q13946); assay: Inhibition of N-terminal GST-tagged human recombinant PDE7A assessed as substrate hydrolysis using [3H]cAMP as substrate at 1 uM after 30 mins by two-step radiometric assay
Sequence of High affinity 3',5'-cyclic-AMP phosphodiesterase 7A (Homo sapiens) (Q13946 whole entry): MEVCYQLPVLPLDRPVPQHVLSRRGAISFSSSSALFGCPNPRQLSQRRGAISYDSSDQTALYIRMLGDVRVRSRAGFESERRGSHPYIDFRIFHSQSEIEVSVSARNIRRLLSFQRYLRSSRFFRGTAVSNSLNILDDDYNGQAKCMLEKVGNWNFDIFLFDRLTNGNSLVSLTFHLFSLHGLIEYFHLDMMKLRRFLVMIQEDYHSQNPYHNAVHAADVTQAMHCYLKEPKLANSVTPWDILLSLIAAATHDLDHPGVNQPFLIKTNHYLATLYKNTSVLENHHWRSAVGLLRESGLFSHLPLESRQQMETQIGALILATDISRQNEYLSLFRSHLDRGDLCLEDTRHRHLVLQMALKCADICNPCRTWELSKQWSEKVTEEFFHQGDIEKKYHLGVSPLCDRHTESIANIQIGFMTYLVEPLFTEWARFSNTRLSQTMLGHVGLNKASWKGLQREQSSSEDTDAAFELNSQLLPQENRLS

[14] = target: High affinity cAMP-specific and IBMX-insensitive 3',5'-cyclic phosphodiesterase 8A (Homo sapiens) (UniProt O60658); assay: Inhibition of N-terminal GST-tagged human recombinant PDE8A assessed as substrate hydrolysis using [3H]cAMP as substrate at 1 uM after 30 mins by two-step radiometric assay
Sequence of High affinity cAMP-specific and IBMX-insensitive 3',5'-cyclic phosphodiesterase 8A (Homo sapiens) (O60658 whole entry): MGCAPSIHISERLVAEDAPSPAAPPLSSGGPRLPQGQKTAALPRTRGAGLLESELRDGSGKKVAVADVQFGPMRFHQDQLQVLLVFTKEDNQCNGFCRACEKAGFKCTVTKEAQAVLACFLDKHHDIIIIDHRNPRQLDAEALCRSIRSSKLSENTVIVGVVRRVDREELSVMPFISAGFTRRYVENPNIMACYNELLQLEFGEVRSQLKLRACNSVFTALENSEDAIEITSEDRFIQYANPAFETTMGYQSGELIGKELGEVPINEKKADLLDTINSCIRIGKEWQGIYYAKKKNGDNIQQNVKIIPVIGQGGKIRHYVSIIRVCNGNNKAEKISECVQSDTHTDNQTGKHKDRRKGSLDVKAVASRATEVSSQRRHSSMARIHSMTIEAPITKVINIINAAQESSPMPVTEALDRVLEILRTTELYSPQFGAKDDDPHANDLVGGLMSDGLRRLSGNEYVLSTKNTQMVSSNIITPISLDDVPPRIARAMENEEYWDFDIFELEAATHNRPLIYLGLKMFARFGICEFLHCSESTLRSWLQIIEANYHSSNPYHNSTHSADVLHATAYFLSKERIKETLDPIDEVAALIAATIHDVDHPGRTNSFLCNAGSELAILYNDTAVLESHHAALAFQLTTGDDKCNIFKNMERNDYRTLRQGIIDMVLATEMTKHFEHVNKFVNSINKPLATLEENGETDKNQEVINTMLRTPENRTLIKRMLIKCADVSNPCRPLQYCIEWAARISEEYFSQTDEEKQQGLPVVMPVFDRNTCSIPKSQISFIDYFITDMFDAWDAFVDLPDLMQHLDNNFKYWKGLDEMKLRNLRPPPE

[15] = target: High affinity cGMP-specific 3',5'-cyclic phosphodiesterase 9A (Homo sapiens) (UniProt O76083); assay: Inhibition of N-terminal GST-tagged human recombinant PDE9A assessed as substrate hydrolysis using [3H]cGMP as substrate at 1 uM after 30 mins by two-step radiometric assay
[16] = target: Dual 3',5'-cyclic-AMP and -GMP phosphodiesterase 11A (Homo sapiens) (UniProt Q9HCR9); assay: Inhibition of N-terminal GST-tagged human recombinant PDE11A assessed as substrate hydrolysis using [3H]cAMP as substrate at 1 uM after 30 mins by two-step radiometric assay
[17] = Cmax in Sprague-Dawley rat at 5 mg/kg, po; assay type: ADME, organism-based; design: dose 5 mg/kg, route oral; details: in vivo
[18] = AUC (0 to t) in Sprague-Dawley rat at 5 mg/kg, po; assay type: ADME, organism-based; design: dose 5 mg/kg, route oral; details: plasma
[19] = Drug uptake in Sprague-Dawley rat brain at 5 mg/kg, po after 1 hr; assay type: ADME, organism-based; design: dose 5 mg/kg, route oral; details: read-out: Drug uptake
Liver microsome [20] = assay: Metabolic stability in rat liver microsomes assessed as metabolite M5 (2-(2-(9-methyl-9H-pyrido[2,3-b]indol-3-yl)vinyloxy)-3-(pyrimidin-5-yl)pyridine 1-oxide) formation at 1 uM after 60 mins by LC-MS/MS analysis; assay type: ADME; details: 1 h
Liver microsome [21] = assay: Metabolic stability in rat liver microsomes assessed as metabolite M6 (3-(2-(3-(pyrimidin-5-yl)pyridin-2-yloxy)ethyl)-9H-pyrido[2,3-b]indole) formation at 1 uM after 60 mins by LC-MS/MS analysis; assay type: ADME; details: 1 h
Liver microsome [22] = assay: Metabolic stability in rat liver microsomes assessed as metabolite M7 (9-methyl-3-(2-(3-(pyrimidin-5-yl)pyridin-2-yloxy)vinyl)-9H-pyrido[2,3-b]indole) formation at 1 uM after 60 mins by LC-MS/MS analysis; assay type: ADME; details: 1 h
Liver microsome [23] = assay: Metabolic stability in rat liver microsomes assessed as metabolite M8 (1-(9-methyl-9H-pyrido[2,3-b]indol-3-yl)-2-(3-(pyrimidin-5-yl)pyridin-2-yloxy)ethanol) formation at 1 uM after 60 mins by LC-MS/MS analysis; assay type: ADME; details: 1 h
Liver microsome [24] = assay: Metabolic stability in rat liver microsomes assessed as metabolite M9 (9-methyl-3-(2-(3-(pyrimidin-5-yl)pyridin-2-yloxy)vinyl)-9H-pyrido[2,3-b]indole) formation at 1 uM after 60 mins by LC-MS/MS analysis; assay type: ADME; details: 1 h
Liver microsome [25] = assay: Metabolic stability in rat liver microsomes assessed as metabolite M1 (3-(2-(3-(pyrimidin-5-yl)pyridin-2-yloxy)ethyl)-9H-pyrido[23-b]indole 1-oxide) formation at 1 uM after 60 mins by LC-MS/MS analysis; assay type: ADME; details: 1 h
Liver microsome [26] = assay: Metabolic stability in rat liver microsomes assessed as metabolite M2 (9-methyl-3-(2-(3-(pyrimidin-5-yl)pyridin-2-yloxy)vinyl)-9H-pyrido[2,3-b]indole 9-oxide) formation at 1 uM after 60 mins by LC-MS/MS analysis; assay type: ADME; details: 1 h
Liver microsome [27] = assay: Metabolic stability in rat liver microsomes assessed as metabolite M3 (1-(9H-pyrido[2,3-b]indol-3-yl)-2-(3-(pyrimidin-5-yl)pyridin-2-yloxy)ethanol) formation at 1 uM after 60 mins by LC-MS/MS analysis; assay type: ADME; details: 1 h
Liver microsome [28] = assay: Metabolic stability in rat liver microsomes assessed as metabolite M4 (9-methyl-3-(2-(3-(pyrimidin-5-yl)pyridin-2-yloxy)vinyl)-9H-pyrido[2,3-b]indole 1-oxide) formation at 1 uM after 60 mins by LC-MS/MS analysis; assay type: ADME; details: 1 h

SMILES: OC(COc1ncccc1-c1cncnc1)c1cnc2[nH]c3ccccc3c2c1 (centres undefined)
Drug metabolism (Liver microsome [1]): metabolite_detected
Retention_time [2]: 9.06 min

SMILES: Cn1cc(COc2nccc(-c3ccc(F)cc3)n2)c2nc3ccccc3cc21
inhibition [3]: 12.1%

SMILES: Cn1cc(COc2ncccc2-c2cncnc2)c2nc3ccccc3cc21
inhibition [3]: 30.7%

SMILES: Cn1c2ccccc2c2cc(CCOc3ncccc3-c3ccc(F)cc3)cnc21
inhibition [3]: 88.5%
IC50 [5]: 68.5 nM

SMILES: Cn1c2ccccc2c2cc(COc3nccnc3-c3cncnc3)cnc21
inhibition [3]: 10.9%

SMILES: c1cnc(OCCc2cnc3[nH]c4ccccc4c3c2)c(-c2cncnc2)c1
Drug metabolism (Liver microsome [1]): metabolite_detected
Retention_time [2]: 10.86 min

SMILES: C[N+]1([O-])c2ccccc2-c2cc(/C=C/Oc3ncccc3-c3cncnc3)cnc21 (centres undefined)
Drug metabolism (Liver microsome [1]): metabolite_detected
Retention_time [2]: 8.64 min

SMILES: Cn1c2ccccc2c2cc(CCCOc3ncccc3N3CCOCC3)cnc21
inhibition [3]: 19.1%

SMILES: Cn1c2ccccc2c2cc(COc3nccc(-c4ccc(F)cc4)n3)cnc21
inhibition [3]: 23.9%

SMILES: Cn1c2ccccc2c2cc(/C=C/Oc3c(-c4cncnc4)ccc[n+]3[O-])cnc21
Drug metabolism (Liver microsome [1]): metabolite_detected
Retention_time [2]: 9.69 min

SMILES: Cn1c2ccccc2c2cc(CCOc3nccnc3-c3ccc(Cl)cc3)cnc21
inhibition [3]: 87.2%
IC50 [5]: 188 nM

SMILES: Cn1c2ccccc2c2cc(CCOc3ncccc3-c3cncnc3)cnc21
Drug metabolism (Liver microsome [20]): metabolite_detected
Drug metabolism (Liver microsome [21]): metabolite_detected
Drug metabolism (Liver microsome [22]): metabolite_detected
Drug metabolism (Liver microsome [23]): metabolite_detected
Drug metabolism (Liver microsome [24]): metabolite_detected
Retention_time [2]: 14.51 min
inhibition [4]: 60%
Selectivity ratio (Homo sapiens): 100
inhibition [3]: 92.5%
IC50 [5]: 24.2 nM
remaining at 1 h, 1 µM [6]: 1.93%
remaining at 1 h, 1 µM [7]: 0.45%
inhibition [8]: 10.7%
inhibition [9]: 67.2%
inhibition [10]: 0%
inhibition [11]: 25.8%
inhibition [12]: 23.9%
inhibition [13]: 20.7%
inhibition [14]: 0%
inhibition [15]: 9.8%
inhibition [16]: 12.4%
Drug metabolism (Liver microsome [25]): metabolite_detected
Drug metabolism (Liver microsome [26]): metabolite_detected
Drug metabolism (Liver microsome [27]): metabolite_detected
Drug metabolism (Liver microsome [28]): metabolite_detected

SMILES: FC(F)(F)Cn1cc(-c2ccncc2)c(-c2ccc(OCc3ccc4ccccc4n3)cc2)n1
IC50 [5]: 1.41 nM

SMILES: Cn1c2ccccc2c2cc(/C=C/Oc3ncccc3-c3cncnc3)cnc21
Drug metabolism (Liver microsome [1]): metabolite_detected
Retention_time [2]: 11.81 min

SMILES: Cn1c2ccccc2c2cc(CCCOc3ncccc3-c3cncnc3)cnc21
inhibition [3]: 43.1%
IC50 [5]: 3220 nM

SMILES: FC(F)n1c2ccccc2c2cc(CCOc3ncccc3-c3cncnc3)cnc21
inhibition [4]: 60%
Selectivity ratio (Homo sapiens): 100
inhibition [3]: 96.3%
IC50 [5]: 33.2 nM
remaining at 1 h, 1 µM [6]: 41.2%
remaining at 1 h, 1 µM [7]: 51.1%
inhibition [8]: 14%
inhibition [9]: 40.6%
inhibition [10]: 0.4%
inhibition [11]: 3.8%
inhibition [12]: 16.7%
inhibition [13]: 20.8%
inhibition [14]: 2.1%
inhibition [15]: 5.3%
inhibition [16]: 15.8%

SMILES: Cn1c2ccccc2c2cc(C(O)COc3ncccc3-c3cncnc3)cnc21 (centres undefined)
Drug metabolism (Liver microsome [1]): metabolite_detected
Retention_time [2]: 11.55 min

SMILES: Cn1c2ccccc2c2cc(/C=C/Oc3ncccc3-c3cncnc3)c[n+]([O-])c21
Drug metabolism (Liver microsome [1]): metabolite_detected
Retention_time [2]: 9.23 min

SMILES: Cn1c2ccccc2c2cc(CCOc3nccnc3-c3ccncc3)cnc21
inhibition [4]: 60%
Selectivity ratio (Homo sapiens): 100
inhibition [3]: 97.2%
IC50 [5]: 11.2 nM
remaining at 1 h, 1 µM [6]: 1.03%
remaining at 1 h, 1 µM [7]: 0.72%
inhibition [8]: 30.1%
inhibition [9]: 34.5%
inhibition [10]: 0.2%
inhibition [11]: 11.9%
inhibition [12]: 13.6%
inhibition [13]: 27%
inhibition [14]: 2%
inhibition [15]: 4.3%
inhibition [16]: 21.7%

SMILES: Cn1cc(CCOc2nccnc2-c2cncnc2)c2nc3ccccc3cc21
inhibition [3]: 82.1%
IC50 [5]: 123 nM
remaining at 1 h, 1 µM [6]: 0.27%
remaining at 1 h, 1 µM [7]: 0.11%

Now from value to compound:

inhibition [4]: 60%
Selectivity ratio (Homo sapiens): 100
inhibition [3]: 85.4%
IC50 [5]: 41.5 nM
remaining at 1 h, 1 µM [6]: 3.19%
remaining at 1 h, 1 µM [7]: 9.92%
inhibition [8]: 13.5%
inhibition [9]: 11.9%
inhibition [10]: 0.1%
inhibition [11]: 0.7%
inhibition [12]: 5.9%
inhibition [13]: 18.3%
inhibition [14]: 0%
inhibition [15]: 1.6%
inhibition [16]: 18.6%
Cmax [17]: 103 ng/mL
AUC(0-t) [18]: 190 ng·h/mL
concentration at 1 h [19]: < 5.4 ng/mL
SMILES: Cn1c2ccccc2c2cc(CCOc3nccnc3-c3ccc(F)cc3)cnc21

inhibition [3]: 75.7%
IC50 [5]: 592 nM
SMILES: Cn1c2ccccc2c2cc(CCOc3ncccc3-c3ccc(Cl)cc3)cnc21

inhibition [4]: 60%
Selectivity ratio (Homo sapiens): 100
inhibition [3]: 95.8%
IC50 [5]: 10.4 nM
remaining at 1 h, 1 µM [6]: 0.77%
remaining at 1 h, 1 µM [7]: 0.63%
inhibition [8]: 40.9%
inhibition [9]: 41.4%
inhibition [10]: 0%
inhibition [11]: 0.6%
inhibition [12]: 36.5%
inhibition [13]: 40.5%
inhibition [14]: 11.2%
inhibition [15]: 1.3%
inhibition [16]: 17.4%
SMILES: Cn1c2ccccc2c2cc(CCOc3ncccc3-c3ccncc3)cnc21

inhibition [3]: 83.4%
IC50 [5]: 67.4 nM
SMILES: Cn1c2ccccc2c2cc(CCOc3nccnc3-c3cncnc3)cnc21

inhibition [3]: 24.6%
SMILES: Cn1cc(COc2ncccc2-c2ccncc2)c2nc3ccccc3cc21

Drug metabolism (Liver microsome [1]): metabolite_detected
Retention_time [2]: 10.86 min
SMILES: Cn1c2ccccc2c2cc(/C=C\Oc3ncccc3-c3cncnc3)cnc21

inhibition [3]: 48.9%
IC50 [5]: 5940 nM
SMILES: Cn1c2ccccc2c2cc(CCCOc3ncccc3-c3cccnc3F)cnc21

inhibition [3]: 23.6%
SMILES: Cn1c2ccccc2c2cc(COc3nccc(-c4cncnc4)n3)cnc21

inhibition [3]: 54.7%
IC50 [5]: 971 nM
remaining at 1 h, 1 µM [6]: 17.5%
remaining at 1 h, 1 µM [7]: 19.6%
SMILES: Cn1c2ccccc2c2cc(C3(COc4ncccc4-c4cncnc4)CC3)cnc21

Drug metabolism (Liver microsome [1]): metabolite_detected
Retention_time [2]: 6.78 min
SMILES: [O-][n+]1cc(CCOc2ncccc2-c2cncnc2)cc2c3ccccc3[nH]c21
